This passage reports IC50 results from patent publication US8399459B2, “1,4 oxazines as BACE1 and/or BACE2 inhibitors” (Hoffmann-La Roche Inc., priority 2011, dated 2013).

The assay has as its target T1, BACE1 (Homo sapiens, UniProt P56817).
T1 construct: Human HEK293 cells which are stably transfected with a vector expressing a cDNA of the human APP wt gene (APP695); endogenous in cells; host or cells: HEK293 (human), stably transfected with human APP695 wt only
Kind of assay: Cellular Aβ-lowering assay (Aβ40 ELISA, HEK293 cells expressing human APP695). It is filed as cell-based. The following applies: HEK293 cells stably expressing human APP695; Aβ40 in supernatant after 18-20 hrs. As for the experimental part: Cellular Aβ-Lowering Assay:
Human HEK293 cells which are stably transfected with a vector expressing a cDNA of the human APP wt gene (APP695) were used to assess the potency of the compounds in a cellular assay. The cells were seeded in 96-well microtiter plates in cell culture medium (Iscove, plus 10% (v/v) fetal bovine serum, glutamine, penicillin/streptomycin) to about 80% confluence and the compounds were added at a 10× concentration in 1/10 volume of medium without FCS containing 8% DMSO (final concentration of DMSO was kept at 0.8% v/v). After 18-20 hrs incubation at 37° C. and 5% CO2 in a humidified incubator the culture supernatant was harvested for the determination of Aβ40 concentrations. 96well ELISA plates (e.g., Nunc MaxiSorb) were coated with monoclonal antibody which specifically recognize the C-terminal end of Aβ40 (Brockhaus et al., NeuroReport 9, 1481-1486; 1998). After blocking of non-specific binding sites with e.g. 1% BSA and washing, the culture supernatants were added in suitable dilutions together with a horseradish peroxidase-coupled Aβ detection antibody (e.g., antibody 4G8, Senetek, Maryland Heights, Mo.) and incubated for 5 to 7 hrs. Subsequently the wells of the microtiter plate were washed extensively with Tris-buffered saline containing 0.05% Tween 20 and the assay was developed with tetramethylbenzidine/H2O2 in citric acid buffer. After stopping the reaction with one volume 1 N H2SO4 the reaction was measured in an ELISA reader at 450 nm wavelength. The concentrations of Aβ in the culture supernatants were calculated from a standard curve obtained with known amounts of pure Aβ peptide.

Counter-ions that a name gives are not always drawn.

T1 sequence (P56817 46-501): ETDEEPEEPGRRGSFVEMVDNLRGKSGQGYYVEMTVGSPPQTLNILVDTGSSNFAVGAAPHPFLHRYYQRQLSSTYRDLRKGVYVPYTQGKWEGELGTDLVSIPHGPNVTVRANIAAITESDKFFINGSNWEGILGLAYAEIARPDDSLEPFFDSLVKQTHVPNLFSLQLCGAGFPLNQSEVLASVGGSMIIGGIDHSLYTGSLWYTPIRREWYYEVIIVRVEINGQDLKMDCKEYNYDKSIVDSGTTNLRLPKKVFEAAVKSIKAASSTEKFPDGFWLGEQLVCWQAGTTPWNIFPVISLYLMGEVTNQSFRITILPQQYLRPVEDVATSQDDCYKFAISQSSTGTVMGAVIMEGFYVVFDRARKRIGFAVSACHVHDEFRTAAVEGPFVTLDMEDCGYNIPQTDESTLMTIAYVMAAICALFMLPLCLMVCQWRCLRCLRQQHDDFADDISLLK

For `COc1cncc(-c2cccc(C3(C)COCC(N)=N3)c2)c1` (stereo not shown) [Example 1, 5-[3-(5-Methoxy-pyridin-3-yl)-phenyl]-5-methyl-5,6-dihydro-2H-[1,4]oxazin-3-ylamine], the IC50 was 0.1 µM.
In turn, `CC1(c2cccc(-c3ccc(F)cc3)c2)COCC(N)=N1` (stereo not shown) [Example 2, 5-(4′-Fluoro-biphenyl-3-yl)-5-methyl-5,6-dihydro-2H-[1,4]oxazin-3-ylamine] displayed an IC50 of 1.17 µM.
`CC1(c2cccc(-c3ccsc3)c2)COCC(N)=N1` (stereo not shown) [Example 3, 5-Methyl-5-(3-thiophen-3-yl-phenyl)-5,6-dihydro-2H-[1,4]oxazin-3-ylamine] yielded an IC50 of 1.06 µM.
To `CC1(c2cccc(-c3cccc(Cl)c3)c2)COCC(N)=N1` (stereo not shown) [Example 4, 5-(3′-Chloro-biphenyl-3-yl)-5-methyl-5,6-dihydro-2H-[1,4]oxazin-3-ylamine] belongs 0.39 µM; to `CC1(c2cccc(-c3cc(Cl)ccc3Cl)c2)COCC(N)=N1` (stereo not shown) [Example 5, 5-(2′,5′-Dichloro-biphenyl-3-yl)-5-methyl-5,6-dihydro-2H-[1,4]oxazin-3-ylamine], 1.09 µM; to `CC1(c2cccc(-c3cc(Cl)cc(Cl)c3Cl)c2)COCC(N)=N1` (stereo not shown) [Example 6, 5-Methyl-5-(2′,3′,5′-trichloro-biphenyl-3-yl)-5,6-dihydro-2H-[1,4]oxazin-3-ylamine], 4.06 µM.
To `CC1(c2cccc(-c3ccc(F)c(Cl)c3)c2)COCC(N)=N1` (stereo not shown) [Example 7, 5-(3′-Chloro-4′-fluoro-biphenyl-3-yl)-5-methyl-5,6-dihydro-2H-[1,4]oxazin-3-ylamine] belongs 0.65 µM.
The figure for `COc1cc(Cl)cc(-c2cccc(C3(C)COCC(N)=N3)c2)c1` (stereo not shown) [Example 8, 5-(3′-Chloro-5′-methoxy-biphenyl-3-yl)-5-methyl-5,6-dihydro-2H-[1,4]oxazin-3-ylamine] is 1.49 µM; for `Cc1cc(Cl)cc(-c2cccc(C3(C)COCC(N)=N3)c2)c1F` (stereo not shown) [Example 10, 5-(5′-Chloro-2′-fluoro-3′-methyl-biphenyl-3-yl)-5-methyl-5,6-dihydro-2H-[1,4]oxazin-3-ylamine] it is 1.5 µM.
As for `CC1(c2cccc(-c3cc(Cl)cc(C(F)(F)F)c3)c2)COCC(N)=N1` (stereo not shown) [Example 11, 5-(5′-Chloro-3′-trifluoromethyl-biphenyl-3-yl)-5-methyl-5,6-dihydro-2H-[1,4]oxazin-3-ylamine], the IC50 is 1.84 µM.
Turning to `CC1(c2cccc(-c3cc(Cl)cc(C(N)=O)c3)c2)COCC(N)=N1` (stereo not shown) [Example 12, 3′-(5-Amino-3-methyl-3,6-dihydro-2H-[1,4]oxazin-3-yl)-5-chloro-biphenyl-3-carboxylic acid amide], the concentration for half-maximal inhibition (IC50) stood at 1.12 µM.
Take `CC1(c2cccc(-c3cc(Cl)cc(C(=O)N4CCOCC4)c3)c2)COCC(N)=N1` (stereo not shown) [Example 13, [3′-(5-Amino-3-methyl-3,6-dihydro-2H-[1,4]oxazin-3-yl)-5-chloro-biphenyl-3-yl]-morpholin-4-yl-methanone]: the IC50 was determined as 2.39 µM.
Take `CC1(c2cccc(-c3cccc(OC(F)F)c3)c2)COCC(N)=N1` (stereo not shown) [Example 14, 5-(3′-Difluoromethoxy-biphenyl-3-yl)-5-methyl-5,6-dihydro-2H-[1,4]oxazin-3-ylamine]: it took 0.48 µM to reach half-maximal inhibition (IC50).
The figure for `CC1(c2cccc(-c3cccc(OC(F)(F)F)c3)c2)COCC(N)=N1` (stereo not shown) [Example 15, 5-Methyl-5-(3′-trifluoromethoxy-biphenyl-3-yl)-5,6-dihydro-2H-[1,4]oxazin-3-ylamine] is 2.31 µM; for `CC1(c2cccc(-c3cccc(C#N)c3)c2)COCC(N)=N1` (stereo not shown) [Example 16, 3′-(5-Amino-3-methyl-3,6-dihydro-2H-[1,4]oxazin-3-yl)-biphenyl-3-carbonitrile] it is 0.28 µM.
Regarding `CC1(c2cccc(-c3cccc(CC#N)c3)c2)COCC(N)=N1` (stereo not shown) [Example 17, [3′-(5-Amino-3-methyl-3,6-dihydro-2H-[1,4]oxazin-3-yl)-biphenyl-3-yl]-acetonitrile], half-maximal inhibition (IC50) required 1.06 µM.
The figure for `CC(C)(C)c1ccc(-c2cccc(C3(C)COCC(N)=N3)c2)cc1` (stereo not shown) [Example 18, 5-(4′-tert-butyl-biphenyl-3-yl)-5-methyl-5,6-dihydro-2H-[1,4]oxazin-3-ylamine formate] is 6.12 µM.
Compound `CC1(c2cccc(-c3ccnc(Cl)c3)c2)COCC(N)=N1` (stereo not shown) [Example 19, 5-[3-(2-chloro-pyridin-4-yl)-phenyl]-5-methyl-5,6-dihydro-2H-[1,4]oxazin-3-ylamine formate] had a half-maximal inhibitory concentration (IC50) of 1.06 µM.
The figure for `CC1(c2cccc(-c3cc(Cl)cnc3Cl)c2)COCC(N)=N1` (stereo not shown) [Example 20, 5-[3-(2,5-Dichloro-pyridin-3-yl)-phenyl]-5-methyl-5,6-dihydro-2H-[1,4]oxazin-3-ylamine] is 0.49 µM; for `CC1(c2cccc(-c3ccc4c(c3)OC(F)(F)O4)c2)COCC(N)=N1` (stereo not shown) [Example 21, 5-[3-(2,2-Difluoro-benzo[1,3]dioxol-5-yl)-phenyl]-5-methyl-5,6-dihydro-2H-[1,4]oxazin-3-ylamine] it is 4.55 µM; for `CC1(c2cccc(-c3ccc4c(c3)OCO4)c2)COCC(N)=N1` (stereo not shown) [Example 22, 5-(3-Benzo[1,3]dioxol-5-yl-phenyl)-5-methyl-5,6-dihydro-2H-[1,4]oxazin-3-ylamine] it is 1.06 µM.
The figure for `Cn1ncc2c(-c3cccc(C4(C)COCC(N)=N4)c3)cccc21` (stereo not shown) [Example 23, 5-Methyl-5-[3-(1-methyl-1H-indazol-4-yl)-phenyl]-5,6-dihydro-2H-[1,4]oxazin-3-ylamine] is 3.66 µM; for `CC1(c2cccc(-c3cc4ccc(Cl)cc4[nH]3)c2)COCC(N)=N1` (stereo not shown) [Example 24, 5-[3-(6-Chloro-1H-indol-2-yl)-phenyl]-5-methyl-5,6-dihydro-2H-[1,4]oxazin-3-ylamine] it is 12.7 µM; for `CC1(c2cccc(-c3ccc4[nH]ccc4c3)c2)COCC(N)=N1` (stereo not shown) [Example 25, 5-[3-(1H-Indol-5-yl)-phenyl]-5-methyl-5,6-dihydro-2H-[1,4]oxazin-3-ylamine] it is 6.41 µM.
To `Cc1cc(-c2cccc(C3(C)COCC(N)=N3)c2)ccc1Cl` (stereo not shown) [Example 26, 5-(4′-Chloro-3′-methyl-biphenyl-3-yl)-5-methyl-5,6-dihydro-2H-[1,4]oxazin-3-ylamine] belongs 13 µM.
Turning to `CC1(c2cccc(-c3ccc(F)cc3F)c2)COCC(N)=N1` (stereo not shown) [Example 27, 5-(2′,4′-Difluoro-biphenyl-3-yl)-5-methyl-5,6-dihydro-2H-[1,4]oxazin-3-ylamine], the midpoint of inhibition, the IC50, lay at 1.06 µM.
As for `CC1(c2cccc(-c3cc(F)cc(F)c3)c2)COCC(N)=N1` (stereo not shown) [Example 28, 5-(3′,5′-Difluoro-biphenyl-3-yl)-5-methyl-5,6-dihydro-2H-[1,4]oxazin-3-ylamine], inhibition was half-maximal at 2.08 µM (IC50).
To `CC1(c2cccc(-c3ccccc3Cl)c2)COCC(N)=N1` (stereo not shown) [Example 29, 5-(2′-Chloro-biphenyl-3-yl)-5-methyl-5,6-dihydro-2H-[1,4]oxazin-3-ylamine] belongs 1.06 µM; to `CCOc1cccc(-c2cccc(C3(C)COCC(N)=N3)c2)c1` (stereo not shown) [Example 30, 5-(3′-Ethoxy-biphenyl-3-yl)-5-methyl-5,6-dihydro-2H-[1,4]oxazin-3-ylamine], 9.1 µM; to `CC1(c2ccc(F)c(-c3cc(Cl)cc(Cl)c3)c2)COCC(N)=N1` (stereo not shown) [Example 31, 5-(3′,5′-Dichloro-6-fluoro-biphenyl-3-yl)-5-methyl-5,6-dihydro-2H-[1,4]oxazin-3-ylamine], 1 µM.
As for `CC1(c2cccc(-c3ccc(Cl)cn3)c2)COCC(N)=N1` (stereo not shown) [Example 33, 5-[3-(5-Chloro-pyridin-2-yl)-phenyl]-5-methyl-5,6-dihydro-2H-[1,4]oxazin-3-ylamine], the IC50 is 12.6 µM.
The figure for `CC1(c2cccc(-c3cncc(Cl)c3)c2)COCC(N)=N1` (stereo not shown) [Example 34, 5-[3-(5-Chloro-pyridin-3-yl)-phenyl]-5-methyl-5,6-dihydro-2H-[1,4]oxazin-3-ylamine] is 0.39 µM.
`CC1(c2cccc(-c3cncc(C#N)c3)c2)COCC(N)=N1` (stereo not shown) [Example 38, 5-(3-(5-Amino-3-methyl-3,6-dihydro-2H-1,4-oxazin-3-yl)phenyl)nicotinonitrile]: half-maximal inhibition (IC50) was put at 0.31 µM.
Turning to `CC1(c2cccc(-c3cccnc3F)c2)COCC(N)=N1` (stereo not shown) [Example 39, 5-(3-(2-fluoropyridin-3-yl)phenyl)-5-methyl-5,6-dihydro-2H-1,4-oxazin-3-amine], the concentration for half-maximal inhibition (IC50) came to 0.28 µM.
With `CC1(c2cccc(-c3ccc(F)nc3F)c2)COCC(N)=N1` (stereo not shown) [Example 40, 5-(3-(2,6-difluoropyridin-3-yl)phenyl)-5-methyl-5,6-dihydro-2H-1,4-oxazin-3-amine], it took 0.53 µM to reach half-maximal inhibition (IC50).
In turn, `CC1(c2cccc(-c3cccc(N)c3)c2)COCC(N)=N1` (stereo not shown) [Example 41, 5-(3′-Amino-biphenyl-3-yl)-5-methyl-5,6-dihydro-2H-[1,4]oxazin-3-ylamine] had an IC50 of 3.07 µM.
The compound `COCC#Cc1cccc(C2(C)COCC(N)=N2)c1` (stereo not shown) [Example 42, 5-[3-(3-Methoxy-prop-1-ynyl)-phenyl]-5-methyl-5,6-dihydro-2H-[1,4]oxazin-3-ylamine] yielded an IC50 of 1.06 µM.
